Earlier results in publication PMC9291711, “PLGA-modified Syloid®-based microparticles for the ocular delivery of terconazole: in-vitro and in-vivo investigations” (Drug Delivery, 2022).

Conditions: stated without reference

## CC(C)N1CCN(c2ccc(OCC3COC(Cn4cncn4)(c4ccc(Cl)cc4Cl)O3)cc2)CC1 (centres unmarked) [Terconazole, terconazole]
  Pka: 8
  log P: 5.37
